These results are taken from US8530504B2, “Pyrazolothiazole compound” (Eisai R&D Management Co., Ltd., priority 2009, dated 2013).

pIC50: −log10 of the molar value.

Chain of human CRFR1 (P34998 24-415): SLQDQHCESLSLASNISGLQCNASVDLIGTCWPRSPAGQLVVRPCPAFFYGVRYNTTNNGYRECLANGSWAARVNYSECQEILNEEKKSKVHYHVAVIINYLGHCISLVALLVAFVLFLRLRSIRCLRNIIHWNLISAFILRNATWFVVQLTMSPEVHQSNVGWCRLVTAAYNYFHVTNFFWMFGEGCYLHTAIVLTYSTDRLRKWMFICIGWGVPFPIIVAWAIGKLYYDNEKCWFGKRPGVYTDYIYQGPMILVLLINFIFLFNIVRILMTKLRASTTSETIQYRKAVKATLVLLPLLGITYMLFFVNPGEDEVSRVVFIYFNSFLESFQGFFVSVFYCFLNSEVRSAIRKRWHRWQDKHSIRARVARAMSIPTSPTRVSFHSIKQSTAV

This test has as its target human CRFR1 (Homo sapiens (Human), UniProt P34998). Put plainly: CRFR1 Binding Test.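 Also: nonspecific binding was determined with a 4,000-fold excess of unlabelled sauvagine and subtracted from every reading.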 As to conditions: competition with 100 pM 125I-CRF, SPA method, membrane fraction of human CRFR1-expressing HEK293 cells; read-out: CRF1 receptor binding capacity IC50.
On to `CCCN(c1ccccn1)c1c(OC)nn2c(-c3c(OC)cc(COC)cc3OC)csc12` [Example 86, 3-[2,6-Dimethoxy-4-(methoxymethyl)phenyl]-6-methoxy-N-propyl-N-pyridin-2-ylpyrazolo[5,1-b][1,3]thiazole-7-amine], for which the pIC50 (as a rule, −log10 of the IC50, conventionally taken in molar units) is 7.48.

Turning to `CCN(CC1C2COCC21)c1c(OC)nn2c(-c3c(OC)cc(C4CC4)cc3OC)csc12` (single isomer, unassigned; diastereomer 1) [Example 97, 3-(4-Cyclopropyl-2,6-dimethoxyphenyl)-N-ethyl-6-methoxy-N-[3-oxabicyclo[3.1.0]hex-6-ylmethyl]pyrazolo[5,1-b][1,3]thiazole-7-amine (diastereomer 1)], the pIC50 is 7.10.

In the case of `COCc1cc(OC)c(-c2csc3c(N(CC(C)C)CC4(OC)CC4)c(OC)nn23)c(OC)c1` [Example 76, 3-[2,6-Dimethoxy-4-(methoxymethyl)phenyl]-N-isobutyl-6-methoxy-N-[(1-methoxycyclopropyl)methyl]pyrazolo[5,1-b][1,3]thiazole-7-amine], the negative logarithm of the IC50 (pIC50) was 7.43.

In the case of `COCc1cc(OC)c(-c2csc3c(N(CC4CCOC4)CC4CC(F)(F)C4)c(OC)nn23)c(OC)c1` (stereo not drawn) [Example 37, N-[(3,3-Difluorocyclobutyl)methyl]-3-[2,6-dimethoxy-4-(methoxymethyl)phenyl]-6-methoxy-N-(tetrahydrofuran-3-ylmethyl)pyrazolo[5,1-b][1,3]thiazole-7-amine], the pIC50 is 7.02.

`COCc1cc(OC)c(-c2c(C)sc3c(N(CC4CC4)CC4CCOC4)c(OC)nn23)c(OC)c1` (stereo not drawn) [Example 8, Cyclopropylmethyl-[3-(2,6-dimethoxy-4-methoxymethyl-phenyl)-6-methoxy-2-methyl-pyrazolo[5,1-b][1,3]thiazol-7-yl]-(tetrahydro-furan-3-ylmethyl)-amine]: the pIC50 is 7.29.

Take `COCCCN(c1c(OC)nn2c(-c3c(OC)cc(COC)cc3OC)csc12)C1CCC1` [Example 62, N-Cyclobutyl-3-[2,6-dimethoxy-4-(methoxymethyl)phenyl]-6-methoxy-N-(3-methoxypropyl)pyrazolo[5,1-b][1,3]thiazole-7-amine]: the pIC50 is 7.14.

For the compound `COCCCN(c1c(OC)nn2c(-c3c(OC)cc(C4CC4)cc3OC)csc12)C1CCCC1` [Example 69, N-Cyclopentyl-3-(4-cyclopropyl-2,6-dimethoxyphenyl)-6-methoxy-N-(3-methoxypropyl)pyrazolo[5,1-b][1,3]-thiazole-7-amine], the negative logarithm of the IC50 (pIC50) is 7.32.

`COCc1cc(OC)c(-c2csc3c(N(CCC(C)OC)CC4CC4)c(OC)nn23)c(OC)c1` (stereo not drawn) [Example 50, N-(Cyclopropylmethyl)-3-[2,6-dimethoxy-4-(methoxymethyl)phenyl]-6-methoxy-N-(3-methoxybutyl)pyrazolo[5,1-b][1,3]thiazole-7-amine]: the pIC50 is 7.06.

Turning to `COCc1cc(OC)c(-c2csc3c(N(CC4CC4)C4CCOC4)c(OC)nn23)c(OC)c1` (stereo not drawn) [Example 13, N-(Cyclopropylmethyl)-3-[2,6-dimethoxy-4-(methoxymethyl)phenyl]-6-methoxy-N-(tetrahydrofuran-3-yl)pyrazolo[5,1-b][1,3]thiazole-7-amine], the pIC50 was 7.25.

In the case of `COc1cc(C2CC2)cc(OC)c1-c1csc2c(N(CC3CC3)CC3CCOC3)c(OC)nn12` (stereo not drawn) [Example 60, 3-(4-Cyclopropyl-2,6-dimethoxyphenyl)-N-(cyclopropylmethyl)-6-methoxy-N-(tetrahydrofuran-3-ylmethyl)pyrazolo[5,1-b][1,3]thiazole-7-amine], the pIC50 was 7.48.

Consider `CCCN(CCC)c1c(C)nn2c(-c3c(OC)cc(COC)cc3OC)c([S+](C)[O-])sc12` (stereo not drawn) [Example 3, 3-[2,6-Dimethoxy-4-(methoxymethyl)phenyl]-6-methyl-2-(methylsulfinyl)-N,N-dipropylpyrazolo[5,1-b][1,3]thiazole-7-amine], for which the pIC50 was 6.53.

As to `CCCN(CCC)c1c(C)nn2c(-c3c(OC)cc(COC)cc3OC)c(SC)sc12` [Example 2], the pIC50 is 7.41.
